For test [1], the target named is T1, A1 and A3 adenosine receptors in mouse brain membranes (Mus musculus, UniProt Q60612).
T1 sequence (Q60612 1-326): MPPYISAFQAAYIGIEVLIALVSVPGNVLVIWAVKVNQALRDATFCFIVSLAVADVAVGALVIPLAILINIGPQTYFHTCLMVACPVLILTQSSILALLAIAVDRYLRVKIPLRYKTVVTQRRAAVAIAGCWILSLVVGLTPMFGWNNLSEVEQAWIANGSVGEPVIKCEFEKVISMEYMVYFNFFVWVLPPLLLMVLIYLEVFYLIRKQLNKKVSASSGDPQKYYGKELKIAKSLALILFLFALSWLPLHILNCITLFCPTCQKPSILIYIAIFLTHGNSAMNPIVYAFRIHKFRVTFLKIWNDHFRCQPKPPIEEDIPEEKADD

Test [2] has as its target T2, adenosine uptake sites in rat brain membranes (Rattus norvegicus, UniProt O54698).
T2 sequence (O54698 1-457): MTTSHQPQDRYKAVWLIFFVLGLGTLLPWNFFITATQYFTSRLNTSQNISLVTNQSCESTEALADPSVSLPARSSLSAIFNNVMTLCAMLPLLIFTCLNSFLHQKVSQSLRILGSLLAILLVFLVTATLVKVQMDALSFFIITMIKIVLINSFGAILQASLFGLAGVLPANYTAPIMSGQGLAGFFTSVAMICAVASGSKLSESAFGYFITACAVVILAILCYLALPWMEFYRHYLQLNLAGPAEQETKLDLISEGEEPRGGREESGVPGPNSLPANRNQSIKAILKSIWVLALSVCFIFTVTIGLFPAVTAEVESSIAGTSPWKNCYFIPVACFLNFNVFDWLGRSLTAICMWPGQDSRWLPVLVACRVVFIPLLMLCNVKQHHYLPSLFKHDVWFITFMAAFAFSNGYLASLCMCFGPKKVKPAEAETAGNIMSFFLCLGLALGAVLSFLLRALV
As to the kind of experiment: Competition for [3H]NBTI binding at adenosine uptake sites in rat striatal membranes. The note with it: for Ki: read-out: Ki (NBTI), 0.3 nM [3H]NBTI, 30 min at 23° C., pH 7.4.

Test [3] relates to locomotor activity in mice. Nature of the test: Locomotor activity in mice (open field, Digiscan activity monitor). The class given is in vivo, mouse (NIH Swiss).
Test [4] deals with locomotor activity in mice. The following applies: CSC 1 mg/kg, shown earlier; cited from earlier work.
In test [5] the target is T3, A1 receptors from rat brain membranes (Rattus norvegicus, UniProt P25099).
T3 construct: Rat cerebral cortical and striatal membranes were prepared; from tissue; host or cells: rat brain (cerebral cortical) membranes
T3 sequence (P25099 1-326): T1 sequence (Q60612 1-326) with E151V, A155D, I157R, E316D, I319L, D325E
Nature of the test: biochemical. In kind it is binding.

Test [6] addresses T4, A2 receptors from rat striatal membranes (Rattus norvegicus, UniProt P30543).
T4 construct: Rat cerebral cortical and striatal membranes were prepared; from tissue; host or cells: rat striatal membranes
As to the kind of experiment: Radioligand binding at A2 (A2a) receptors, displacement of [3H]CGS 21680 (or [3H]NECA with 50 nM CPA) from rat striatal membranes. Background: Loss of bound radioactivity is the signal in a displacement assay; it reports binding, not function.

For test [7], the target named is T5, A3 adenosine receptors in mouse brain membranes (Mus musculus, UniProt Q61618).
T5 construct: in mouse brain membranes; from tissue; host or cells: NIH Swiss mouse brain region membranes (cerebellum for the Kd/Bmax)
T5 sequence (Q61618 1-319): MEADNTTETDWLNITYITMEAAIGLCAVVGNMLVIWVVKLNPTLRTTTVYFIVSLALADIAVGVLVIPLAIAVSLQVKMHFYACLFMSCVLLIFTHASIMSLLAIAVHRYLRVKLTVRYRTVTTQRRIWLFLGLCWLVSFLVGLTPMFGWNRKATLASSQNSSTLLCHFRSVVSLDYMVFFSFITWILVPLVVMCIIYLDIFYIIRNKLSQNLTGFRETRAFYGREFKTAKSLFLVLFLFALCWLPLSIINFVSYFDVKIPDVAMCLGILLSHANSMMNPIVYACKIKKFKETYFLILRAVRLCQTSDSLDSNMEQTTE
As to the kind of experiment: [125I]AB-MECA saturation binding to A3 receptors in mouse brain membranes in the presence of 100 nM CPX.

The subject of test [8] is A1 and A3 adenosine receptors in mouse brain membranes.
For test [9], the target named is T6, A3 adenosine receptors in rat brain membranes (Rattus norvegicus, UniProt P28647).
T6 sequence (P28647 1-320): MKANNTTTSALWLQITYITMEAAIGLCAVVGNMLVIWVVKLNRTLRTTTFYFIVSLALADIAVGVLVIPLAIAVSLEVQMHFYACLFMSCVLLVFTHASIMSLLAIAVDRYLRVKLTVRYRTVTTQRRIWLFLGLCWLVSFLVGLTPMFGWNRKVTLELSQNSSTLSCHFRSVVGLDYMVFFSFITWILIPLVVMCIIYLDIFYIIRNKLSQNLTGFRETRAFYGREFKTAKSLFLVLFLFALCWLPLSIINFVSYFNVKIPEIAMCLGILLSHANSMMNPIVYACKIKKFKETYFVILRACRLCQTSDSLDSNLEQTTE

Test [10] has as its target T4, A2 receptors from rat striatal membranes. The following applies: cited from earlier work.
In test [11] the target is T3, A1 receptors from rat brain membranes. The note with it: values without SEM, taken from the literature; read-out: A1 affinity Ki; cited from earlier work.
Test [12] has as its target T7, rat A3 receptors (Rattus norvegicus, UniProt P28647).
T7 construct: expressed in transfected cells; host or cells: CHO cells, transfected (the IC50); RBL-2H3 rat mast cells (endogenous) also named
T7 sequence (P28647 1-320): T6 sequence (P28647 1-320)
As to the kind of experiment: Irreversible inhibition of radioligand binding at rat A3 receptors after preincubation.

Test [13] relates to cardiovascular parameters in rats. The class given is in vivo, rat. The following applies: 0.1 mg/kg i.p.
Experimental: Rats (each weighing 300-340 g) were lightly anesthetized using 1.5-2% halothane. They were monitored for heart rate with a tail sensor and blood pressure using the tail cuff method. Peripheral blood flow (scalp) was monitored using a Perimed laser Doppler blood flow apparatus, with a narrow diameter probe placed in contact with the shaved skin above the center of the cranium. A small amount of clear gel was applied to maintain uniform transmission of light. Body temperature was measured using a rectal probe. Respiratory rate was also recorded. Measurements were made at regular intervals: every 2 min for the first ten min period, and every five min thereafter, until 30 min, at which time a 30 min interval was used, until 90 min. […] Drugs were dissolved in a vehicle consisting of an 80:20 mixture of Alkamuls EL-620 and saline, pH 7.4. […] When administered alone, the agonist was given at the beginning of the monitoring period. When coadministered with an antagonist, the antagonist was given at the beginning of the monitoring period, and the agonist was given after 10 min.
The mark [14] stands for this setting: Table 2, [3H]PIA, rat brain membranes, read-out: Ki (A1).
[15] abbreviates: Table 2, [3H]CGS 21680, rat striatal membranes, read-out: Ki (A2).
Setting [16] is: values without SEM, taken from the literature, read-out: A2 affinity Ki.

Positions count from the first letter of the chain named. Like-named read-outs stand apart in the source and are kept apart here.

What is called Ki is a dissociation constant, usually derived from enzyme kinetics or from competition with a known ligand. The Kd is a measure of binding affinity in units of concentration. Broadly, the IC50 is the concentration needed to halve the response being measured. A lower IC50 goes with higher potency. As usually defined, the ED50 is the dose that gives a 50% effect, or the effect in half of the subjects.

T4 sequence (P30543 whole entry): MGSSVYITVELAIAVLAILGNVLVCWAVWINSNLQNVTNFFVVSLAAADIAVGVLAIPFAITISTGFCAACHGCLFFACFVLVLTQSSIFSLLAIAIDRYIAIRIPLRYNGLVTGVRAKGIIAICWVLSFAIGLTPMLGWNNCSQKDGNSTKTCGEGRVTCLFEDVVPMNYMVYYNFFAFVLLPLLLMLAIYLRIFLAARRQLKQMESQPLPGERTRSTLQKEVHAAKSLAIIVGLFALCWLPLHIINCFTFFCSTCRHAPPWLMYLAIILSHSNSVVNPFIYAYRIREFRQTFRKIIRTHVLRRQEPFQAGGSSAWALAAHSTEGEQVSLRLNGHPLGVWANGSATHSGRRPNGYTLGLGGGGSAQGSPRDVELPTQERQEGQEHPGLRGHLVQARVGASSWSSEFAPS

As for `CCCn1c(=O)c2[nH]c(C3CCCC3)nc2n(CCC)c1=O` [Compound 130, 8-cyclopentyl-1,3-dipropylxanthine], the “displacement of specific [125I]AB-MECA binding (in words)” value in test [1] was “completely displaced most but not all of the high affinity [^125 I]AB-MECA binding”. Besides, in test [1] (sigmoidal competition curves), the “Ki for displacement of [125I]AB-MECA binding” value fell in the range of 2 to 8 nM.

For the compound `CNC(=O)[C@H]1O[C@@H](n2cnc3c(NCc4cccc(I)c4)nc(Cl)nc32)[C@H](O)[C@@H]1O` [Example 44, 2-chloro-N^6-(3-iodobenzyl)-9-[5-(methylamido)-β-D-ribofuranosyl]-adenine], the inhibitory constant (Ki) in [2] came to 15200 nM.

In the case of `CN1CCC(=C2c3ccccc3C=Cc3ccccc32)CC1` [cyproheptadine, reference compound], the “effect on 3-IB-MECA-induced scratching (in words)” value in test [3] (1 mg/kg) is reported as “only partial”; in test [3] (10 mg/kg i.p.), “eliminated this behavior”.

On to `Cn1c(=O)c2c(nc(C=Cc3cccc(Cl)c3)n2C)n(C)c1=O` [Compound 134, 8-(3-chlorostyryl)caffeine], for which the “reversal of 3-IB-MECA-mediated locomotor depression (in words)” value in [3] (CSC 1 mg/kg) was “small, statistically insignificant reversal”. In test [1], the “displacement of specific [125I]AB-MECA binding (in words)” value was “failed to displace specific binding of [^125 I]AB-MECA”. In addition, the “reversal of APEC-elicited behavioral depression (in words)” value in [4] was “complete reversal”.

Take `CNC(=O)[C@H]1O[C@@H](n2cnc3c(NCc4cccc(I)c4)nc(SC)nc32)[C@H](O)[C@@H]1O` [Example 46, N^6-(3-iodobenzyl)-2-methylthio-9-[5-(methylamido)-β-D-ribofuranosyl]-adenine]: the values for the Ki in test [5] (setting [14]), in test [6] (setting [15]) and in test [2] were 2140 ± 100 nM, 3210 ± 1360 nM and 49500 nM, respectively. Moreover, the “Ratio of Ki (NBTI)/Ki ([125I]AB-MECA)” value in test [2] (selectivity for cloned rat A3 receptors vs adenosine uptake site) was 22,000.

Consider `CNC(=O)[C@H]1O[C@@H](n2cnc3c(NCc4ccc(N)c([125I])c4)ncnc32)[C@H](O)[C@@H]1O` [[^125 I]AB-MECA, [^125 I]4-amino-3-iodobenzyladenosine-5'-N-methyluronamide], for which, in [7] (0.4 nM [125I]AB-MECA), the “A3 share of total specific binding, cerebellum and striatum” value is given as 18 % of total specific binding; the “A3 share of total specific binding, hippocampus and cortex” value was 7-9 % of total specific binding. The Kd in [7] (mouse cerebellar membranes) came to 1.39 nM. Besides, in test [1] (cerebellum), the Bmax cerebellum is 120±5 fmol specifically bound/mg protein. For the same compound, in [1] (cortex), the Bmax cortex is 159±15 fmol specifically bound/mg protein. In addition, the Bmax hippocampus in test [1] (hippocampus) was 215±17 fmol specifically bound/mg protein. Also, the “Kd values (Scatchard analysis)” value in test [1] (regions of mouse brain) lay in the range of 1.9 to 2.8 nM. Moreover, in [1] (striatum), the Bmax striatum is given as 123±23 fmol specifically bound/mg protein. In test [8], the “specific binding of total binding” value is recorded as “ca. 70 % of total binding”. In test [8] (in the presence of 40 μM R-PIA), the nonspecific binding entry is “approximately 30 % of the total binding”. In addition, the “Bmax in rat brain membranes” value in test [9] is 43 fmol/mg protein. Further, in [10] (Table 2, footnotes d/e: literature, read-out: Ki (A2)), the inhibition constant Ki was 197 nM.

Turning to `Cn1c(=O)[nH]c2nc[nH]c2c1=O` [Compound 99, 1-methylX], the Ki is 11400 nM in [11] and 36200 nM in test [10] (setting [16]).

As to `CNC(=O)[C@H]1O[C@@H](n2cnc3c(NCc4cccc(N=C=S)c4)ncnc32)[C@H](O)[C@@H]1O` [N^6-(3-isothiocyanatobenzyl)adenosine-5'-N-methyluronamide], in test [5], the Ki was determined as 145 nM and the “irreversible inhibition at rat A1 receptors (in words)” value was “not at rat A1 or A2a receptors”. Further, in test [6], the affinity corresponds to a Ki of 272 nM and the “irreversible inhibition at rat A2a receptors (in words)” value was “not at rat A1 or A2a receptors”. For the same compound, in [12], the IC50 came out at 50 nM and the “Kd of remaining A3 receptor sites (in words)” value is “No change was observed in the Kd value”. The “irreversible inhibition of A3 binding (in words)” value in test [12] (CHO cells or RBL-2H3 mast cells) is reported as “irreversible inhibition of radioligand binding at rat A3 receptors”.

With `OC[C@H]1O[C@@H](n2cnc3c(NC4CCCC4)ncnc32)[C@H](O)[C@@H]1O` [Compound 4, N^6 -cyclopentyladenosine, reference compound], the 50% effective dose (ED50) in test [3] (Mus musculus, ip, read-out: ED50 for locomotor depression) stood at 0.1 mg/kg. Further, the “duration of bradycardiac effect” value in test [13] (entire monitoring period) came out at 90 min. Besides, in [13] (from initial value), the “drop in blood pressure” value was determined as 50% and the “drop in heart rate” value was 20%. Besides, the “time at which hypotensive effect begins to wane” value in [13] (post-injection) is given as “approximately 20 min”.

Take `CCCn1c(=O)c2[nH]c(-c3ccc(S(=O)(=O)O)cc3)nc2n(CCC)c1=O` [Compound 135, 8-sulfophenyl-1,3-dipropylX]: the inhibition constant (Ki) is 140 nM in [11] and 790 nM in [10] (setting [16]).

Take `CCNC(=O)[C@H]1O[C@@H](n2cnc3c(N)nc(NCCc4ccc(CCC(=O)NCCN)cc4)nc32)[C@H](O)[C@@H]1O` [APEC, reference compound]: the Ki in [5] (setting [14]) turned out to be 400 nM; in test [6] (setting [15]), 5.7 nM. In addition, the “reduction in locomotor activity at chosen dose” value in test [3] (APEC 16 μg/kg, 3-IB-MECA 100 μg/kg i.p.) was “ca. 50%”.

Regarding `NC(=O)[C@H]1O[C@@H](n2cnc3c(N)ncnc32)[C@H](O)[C@@H]1O` [Compound 20, 5'-carboxamidoadenosine], the results for the Ki in [11] and in [10] (setting [16]) were 72.6 nM and 120 nM, respectively.

`OC[C@H]1O[C@@H](n2cnc3c(NCc4ccccc4)ncnc32)[C@H](O)[C@@H]1O` [Compound 7, N^6 -benzyladenosine, reference compound]: in [2], the inhibition constant (Ki) turned out to be 203 ± 93 nM.

The record behind these values is patent publication US5773423A (priority 1994, dated 1998).
